Earlier results in patent publication US6428772B1, “Acne treatment composition with cooling effect” (Blistex Inc., priority 2001, dated 2002).
Read-outs that look alike come from different tables or passages of the source.

Legend:
[1] = not given; remark: listed apart in the source
[2] = test system: histamine induced itching; conditions: Neuroscience Letters 1995, 187:3, pp. 157-160

Row | Structure (SMILES) | volume of alcohol dissolving 1 gram (1 gram) | pH of the solution produced ([1]; 1 gram in about 460 ml of water) | volume of water dissolving 1 gram ([1]; 1 gram, water, room temperature) | solubility in water ([1]; water) | solubility in water ([1]; water, room temperature) | solubility in alcohol | effect on histamine induced itching [2]
1 | O=C(O)c1ccccc1O [Salicylic acid, salicylic acid] | about 2.7 ml | 2.4 | about 460 ml | sparingly soluble | about 0.2 % by weight | – | –
2 | O=C(OOC(=O)c1ccccc1)c1ccccc1 [Benzoyl peroxide, benzoyl peroxide] | – | – | – | sparingly soluble | – | sparingly soluble | –
3 | CC1CCC(C(C)C)C(O)C1 (centres unmarked) [menthol] | – | – | – | – | – | – | effective
